Results from patent publication US20080200454A1, “CARBON-LINKED TETRAHYDRO-PYRAZOLO-PYRIDINE MODULATORS OF CATHEPSIN S” (priority 2007, published 2008).
Like-named read-outs stand apart in the source and are kept apart here.

Molecular target: Recombinant human cathepsin S (CatS) (Homo sapiens, UniProt P25774)
Assay: Recombinant human cathepsin S (CatS) inhibition assay, fluorogenic substrate Z-Valine-Valine-Arginine-AMC;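 note: Baculovirus-expressed CatS in pH 5.0 sodium acetate buffer with DTT and NaCl, fluorescence read each minute over 20 min, inhibition derived from rate slope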

Recombinant human cathepsin S (CatS), sequence (P25774 115-331): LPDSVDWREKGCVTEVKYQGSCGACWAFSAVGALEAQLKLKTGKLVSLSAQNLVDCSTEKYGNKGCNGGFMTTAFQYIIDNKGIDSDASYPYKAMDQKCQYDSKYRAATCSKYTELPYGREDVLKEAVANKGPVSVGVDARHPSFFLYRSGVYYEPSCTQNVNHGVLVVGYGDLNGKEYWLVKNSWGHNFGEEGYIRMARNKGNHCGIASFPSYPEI

Structure (SMILES)	IC50 [µM]	IC50 (CatS IC50) [µM]
CC(C)CC#Cc1cc(-c2nn(C[C@@H](O)CN3CCC(C4CCN(C(=O)OC(C)(C)C)CC4)CC3)c3c2CN(S(C)(=O)=O)CC3)ccc1Cl [Example 231, 1,1-Dimethylethyl 1′-[(2S)-3-{3-[4-chloro-3-(4-methylpent-1-yn-1-yl)phenyl]-5-(methylsulfonyl)-4,5,6,7-tetrahydro-1H-pyrazolo[4,3-c]pyridin-1-yl}-2-hydroxypropyl]-4,4′-bipiperidine-1-carboxylate]	2.69	
CC(C)(C)OC(=O)N1CCC(C2CCN(C[C@H](O)Cn3nc(-c4ccc(Cl)c(C#CCc5ccccc5)c4)c4c3CCN(S(C)(=O)=O)C4)CC2)CC1 [Example 232, 1,1-Dimethylethyl 1′-[(2S)-3-{3-[4-chloro-3-(3-phenylprop-1-yn-1-yl)phenyl]-5-(methylsulfonyl)-4,5,6,7-tetrahydro-1H-pyrazolo[4,3-c]pyridin-1-yl}-2-hydroxypropyl]-4,4′-bipiperidine-1-carboxylate]		1.53
CC(C)(C)OC(=O)N1CCC(C2CCN(C[C@H](O)Cn3nc(-c4ccc(Cl)c(C#CC5CCCCC5)c4)c4c3CCN(S(C)(=O)=O)C4)CC2)CC1 [Example 233, 1,1-Dimethylethyl 1′-[(2S)-3-{3-[4-chloro-3-(cyclohexylethynyl)phenyl]-5-(methylsulfonyl)-4,5,6,7-tetrahydro-1H-pyrazolo[4,3-c]pyridin-1-yl}-2-hydroxypropyl]-4,4′-bipiperidine-1-carboxylate]	7.92	
CC(C)(C)OC(=O)N1CCC(C2CCN(C[C@H](O)Cn3nc(-c4ccc(Cl)c(C#Cc5ccccn5)c4)c4c3CCN(S(C)(=O)=O)C4)CC2)CC1 [Example 234, 1,1-Dimethylethyl 1′-[(2S)-3-{3-[4-chloro-3-(pyridin-2-ylethynyl)phenyl]-5-(methylsulfonyl)-4,5,6,7-tetrahydro-1H-pyrazolo[4,3-c]pyridin-1-yl}-2-hydroxypropyl]-4,4′-bipiperidine-1-carboxylate]		0.28
CC(C)(C)OC(=O)N1CCC(C2CCN(C[C@H](O)Cn3nc(-c4ccc(Cl)c(C#Cc5cccnc5)c4)c4c3CCN(S(C)(=O)=O)C4)CC2)CC1 [Example 235, 1,1-Dimethylethyl 1′-[(2S)-3-{3-[4-chloro-3-(pyridin-3-ylethynyl)phenyl]-5-(methylsulfonyl)-4,5,6,7-tetrahydro-1H-pyrazolo[4,3-c]pyridin-1-yl}-2-hydroxypropyl]-4,4′-bipiperidine-1-carboxylate]		0.33
CCN(CC)CC#Cc1cc(-c2nn(C[C@@H](O)CN3CCC(C4CCN(C(=O)OC(C)(C)C)CC4)CC3)c3c2CN(S(C)(=O)=O)CC3)ccc1Cl [Example 236, 1,1-Dimethylethyl 1′-{(2S)-3-[3-{4-chloro-3-[3-(diethylamino)prop-1-yn-1-yl]phenyl}-5-(methylsulfonyl)-4,5,6,7-tetrahydro-1H-pyrazolo[4,3-c]pyridin-1-yl]-2-hydroxypropyl}-4,4′-bipiperidine-1-carboxylate]	7.13	
CC(C)CC#Cc1cc(-c2nn(C[C@@H](O)CN3CCC(C4CCNCC4)CC3)c3c2CN(S(C)(=O)=O)CC3)ccc1Cl [Example 239, (2S)-1-(4,4′-Bipiperidin-1-yl)-3-{3-[4-chloro-3-(4-methylpent-1-yn-1-yl)phenyl]-5-(methylsulfonyl)-4,5,6,7-tetrahydro-1H-pyrazolo[4,3-c]pyridin-1-yl}propan-2-ol]		0.61
C[C@H]1COCCN1CCCn1nc(-c2ccc(Cl)c(CCc3ccc(CNCc4ccc(Cl)cc4)cc3)c2)c2c1CCN(C(N)=O)C2 [Example 244, 3-(4-Chloro-3-{2-[4-({[(4-chlorophenyl)methyl]amino}methyl)phenyl]ethyl}phenyl)-1-{3-[(3S)-3-methylmorpholin-4-yl]propyl}-1,4,6,7-tetrahydro-5H-pyrazolo[4,3-c]pyridine-5-carboxamide]		0.06
CC(=O)N1CCC(C2CCN(C[C@H](O)Cn3nc(-c4ccc(Cl)c(CCc5ccc(Cl)cc5)c4)c4c3CCN(S(C)(=O)=O)C4)CC2)CC1 [Example 247, (2S)-1-(1′-Acetyl-4,4′-bipiperidin-1-yl)-3-[3-{4-chloro-3-[2-(4-chlorophenyl)ethyl]phenyl}-5-(methylsulfonyl)-4,5,6,7-tetrahydro-1H-pyrazolo[4,3-c]pyridin-1-yl]propan-2-ol]		0.07
NC(=O)C(=O)N1CCc2c(c(-c3ccc(Cl)c(C#Cc4ccc(CNCc5ccc(Cl)cc5)cc4)c3)nn2C[C@H](O)CN2CCSCC2)C1 [Example 250, (R)-2-[3-(4-Chloro-3-{4-[(4-chloro-benzylamino)-methyl]-phenylethynyl}-phenyl)-1-(2-hydroxy-3-thiomorpholin-4-yl-propyl)-1,4,6,7-tetrahydro-pyrazolo[4,3-c]pyridin-5-yl]-2-oxo-acetamide]		0.08
NC(=O)N1CCc2c(c(-c3ccc(Cl)c(C#Cc4ccc(CNCc5ccc(Cl)cc5)cc4)c3)nn2C[C@H](O)CN2CCSCC2)C1 [Example 252, (R)-3-(4-Chloro-3-{4-[(4-chloro-benzylamino)-methyl]-phenylethynyl}-phenyl)-1-(2-hydroxy-3-thiomorpholin-4-yl-propyl)-1,4,6,7-tetrahydro-pyrazolo[4,3-c]pyridine-5-carboxylic acid amide]		0.11

Now from value to compound, other results behind:

IC50 [µM]	Structure (SMILES)	IC50 (CatS IC50) [µM]
0.01	CC(C)(C)OC(=O)N1CCC(C2CCN(C[C@H](O)Cn3nc(-c4ccc(Cl)c(C#Cc5ccc(Cl)cc5)c4)c4c3CCN(C(N)=O)C4)CC2)CC1 [Example 237, 1,1-Dimethylethyl 1′-{(2S)-3-[5-(aminocarbonyl)-3-{4-chloro-3-[(4-chlorophenyl)ethynyl]phenyl}-4,5,6,7-tetrahydro-1H-pyrazolo[4,3-c]pyridin-1-yl]-2-hydroxypropyl}-4,4′-bipiperidine-1-carboxylate]	
0.003	NC(=O)N1CCc2c(c(-c3ccc(Cl)c(C#Cc4ccc(Cl)cc4)c3)nn2C[C@@H](O)CN2CCC(C3CCNCC3)CC2)C1 [Example 238, 1-[(2S)-3-(4,4′-Bipiperidin-1-yl)-2-hydroxypropyl]-3-{4-chloro-3-[(4-chlorophenyl)ethynyl]phenyl}-1,4,6,7-tetrahydro-5H-pyrazolo[4,3-c]pyridine-5-carboxamide]	
0.01	CN1CCC(C2CCN(C[C@H](O)Cn3nc(-c4ccc(Cl)c(C#Cc5ccc(Cl)cc5)c4)c4c3CCN(S(C)(=O)=O)C4)CC2)CC1 [Example 240, (2S)-1-[3-{4-Chloro-3-[(4-chlorophenyl)ethynyl]phenyl}-5-(methylsulfonyl)-4,5,6,7-tetrahydro-1H-pyrazolo[4,3-c]pyridin-1-yl]-3-(1′-methyl-4,4′-bipiperidin-1-yl)propan-2-ol]	
0.03	CC(=O)N1CCC(C2CCN(C[C@H](O)Cn3nc(-c4ccc(Cl)c(C#Cc5ccc(Cl)cc5)c4)c4c3CCN(S(C)(=O)=O)C4)CC2)CC1 [Example 241, (2S)-1-(1′-Acetyl-4,4′-bipiperidin-1-yl)-3-[3-{4-chloro-3-[(4-chlorophenyl)ethynyl]phenyl}-5-(methylsulfonyl)-4,5,6,7-tetrahydro-1H-pyrazolo[4,3-c]pyridin-1-yl]propan-2-ol]	
0.03	CC(C)(C)OC(=O)N1CCC(C2CCN(C[C@H](O)Cn3nc(-c4ccc(Cl)c(CCc5ccc(Cl)cc5)c4)c4c3CCN(C(N)=O)C4)CC2)CC1 [Example 242, 1,1-Dimethylethyl 1′-{(2S)-3-[5-(aminocarbonyl)-3-{4-chloro-3-[2-(4-chlorophenyl)ethyl]phenyl}-4,5,6,7-tetrahydro-1H-pyrazolo[4,3-c]pyridin-1-yl]-2-hydroxypropyl}-4,4′-bipiperidine-1-carboxylate]	
0.04	C[C@H]1COCCN1CCCn1nc(-c2ccc(Cl)c(CCc3ccc(CNCc4ccc(Cl)cc4)cc3)c2)c2c1CCN(C(=O)C(N)=O)C2 [Example 243, 2-[3-(4-Chloro-3-{2-[4-({[(4-chlorophenyl)methyl]amino}methyl)phenyl]ethyl}phenyl)-1-{3-[(3S)-3-methylmorpholin-4-yl]propyl}-1,4,6,7-tetrahydro-5H-pyrazolo[4,3-c]pyridin-5-yl]-2-oxoacetamide]	
0.03	CC(C)(C)OC(=O)N1CCC(C2CCN(C[C@H](O)Cn3nc(-c4ccc(Cl)c(CCc5ccc(Cl)cc5)c4)c4c3CCN(S(C)(=O)=O)C4)CC2)CC1 [Example 245, 1,1-Dimethylethyl 1′-{(2S)-3-[3-{4-chloro-3-[2-(4-chlorophenyl)ethyl]phenyl}-5-(methylsulfonyl)-4,5,6,7-tetrahydro-1H-pyrazolo[4,3-c]pyridin-1-yl]-2-hydroxypropyl}-4,4′-bipiperidine-1-carboxylate]	
0.01	CS(=O)(=O)N1CCc2c(c(-c3ccc(Cl)c(CCc4ccc(Cl)cc4)c3)nn2C[C@@H](O)CN2CCC(C3CCNCC3)CC2)C1 [Example 246, (2S)-1-(4,4′-Bipiperidin-1-yl)-3-[3-{4-chloro-3-[2-(4-chlorophenyl)ethyl]phenyl}-5-(methylsulfonyl)-4,5,6,7-tetrahydro-1H-pyrazolo[4,3-c]pyridin-1-yl]propan-2-ol]	
0.02	CN1CCC(C2CCN(C[C@H](O)Cn3nc(-c4ccc(Cl)c(CCc5ccc(Cl)cc5)c4)c4c3CCN(S(C)(=O)=O)C4)CC2)CC1 [Example 248, (2S)-1-[3-{4-Chloro-3-[2-(4-chlorophenyl)ethyl]phenyl}-5-(methylsulfonyl)-4,5,6,7-tetrahydro-1H-pyrazolo[4,3-c]pyridin-1-yl]-3-(1′-methyl-4,4′-bipiperidin-1-yl)propan-2-ol]	
0.05	NC(=O)C(=O)N1CCc2c(c(-c3ccc(Cl)c(C#Cc4ccc(CNCc5ccc(Cl)cc5)cc4)c3)nn2C[C@@H](O)CN2CCSCC2)C1 [Example 249, (S)-2-[3-(4-Chloro-3-{4-[(4-chloro-benzylamino)-methyl]-phenylethynyl}-phenyl)-1-(2-hydroxy-3-thiomorpholin-4-yl-propyl)-1,4,6,7-tetrahydro-pyrazolo[4,3-c]pyridin-5-yl]-2-oxo-acetamide]	
0.04	NC(=O)N1CCc2c(c(-c3ccc(Cl)c(C#Cc4ccc(CNCc5ccc(Cl)cc5)cc4)c3)nn2C[C@@H](O)CN2CCSCC2)C1 [Example 251, (S)-3-(4-Chloro-3-{4-[(4-chloro-benzylamino)-methyl]-phenylethynyl}-phenyl)-1-(2-hydroxy-3-thiomorpholin-4-yl-propyl)-1,4,6,7-tetrahydro-pyrazolo[4,3-c]pyridine-5-carboxylic acid amide]	
